Measurements reported in the Biogen ADME set (Fang et al. 2023).
≈ marks a conversion by molar mass, not a printed value.

Details: for aqueous solubility: pH 6.8

Row | SMILES | MDR1-MDCK efflux ratio | intrinsic clearance, human liver microsomes [mL/min/kg] | intrinsic clearance, rat liver microsomes [mL/min/kg] | aqueous solubility [µg/mL] | fraction unbound, human plasma | fraction unbound, rat plasma
1 | CCc1cc2c(cc1N1CCC(N3CCOCC3)CC1)C(C)(C)c1[nH]c3cc(C#N)ccc3c1C2=O | 11.8 | 35.8 | 17.8 | 11.7 (≈ 24.2 µM) | – | –
2 | Cn1ncc2c(Oc3cccc(C(C)(C)C)c3)ncnc21 | 0.48 | 36.7 | 465 | 3.9 (≈ 13.8 µM) | – | –
3 | CN(CCO)C(=O)c1ccc(-c2cccc(C(F)(F)F)n2)cc1 | 1.52 | ≤ 4.74 | 54.3 | – | – | –
4 | NC(=O)c1cccc(Cn2cnc3c(oc4ccccc43)c2=O)c1 | 13.9 | ≤ 4.74 | 19 | – | – | –
5 | CC(=O)N1CCC(c2ccccn2)CC1 | 0.791 | ≤ 4.74 | ≤ 10.7 | 48.3 (≈ 237 µM) | – | –
6 | CC(=O)Nc1ccccc1OCCOc1ccc(Cl)cc1 | 0.373 | 95.8 | 665 | – | – | –
7 | C=CC(=O)N(C)CCOc1c(N)ncnc1-c1cc(F)cc(NC(=O)c2ccc(C3CC3)cc2F)c1C | 86.8 | 79 | 2040 | 58.9 (≈ 116 µM) | 0.0689 | –
8 | CCc1cnccc1C(=O)Nc1cnccn1 | 0.767 | ≤ 4.74 | 17.2 | – | – | –
9 | CN(C)c1ccnc(NCc2ccc(F)cc2)n1 | – | 54 | 1790 | – | – | –
10 | NC(=O)c1noc([C@@H](CCCC2CCCCC2)CC(=O)NO)n1 | – | 7.31 | – | – | – | –
11 | CC(C)c1nc(S(=O)(=O)N2CC3(CC3)c3ccccc32)c[nH]1 | 8.26 | 789 | 3110 | – | – | –
12 | N#Cc1ccc(C(=O)Nn2cnnc2)cc1 | – | ≤ 4.74 | ≤ 10.7 | 18 (≈ 84.3 µM) | – | –
13 | CNCc1cc(N(C)C)nc(C2CCCN2C(=O)COc2ccc(F)cc2)n1 (stereo not drawn) | 46.7 | ≤ 4.74 | 244 | – | – | –
14 | C=CC(=O)Nc1cccc(Oc2nc(Nc3ccc(N4CCN(C)CC4)cc3)nc3ccsc23)c1 | 85.5 | 9.79 | 210 | – | 0.00892 | 0.00491
15 | O=C(Nc1ccn(Cc2ccccn2)n1)c1c(F)cccc1I | 2.85 | ≤ 4.74 | 132 | 61.2 (≈ 145 µM) | – | –
16 | Cc1cc(C)nc(N2Cc3ccccc3C2=N)n1 | 0.807 | 24.6 | 1160 | – | – | –
17 | N=C(N)NCCCCC(=O)Nc1ccc(C[C@H](NC(=O)[C@@H]2CCCN2S(=O)(=O)c2ccccc2)C(=O)O)cc1 | – | ≤ 4.74 | ≤ 10.7 | – | – | –

Second part, the compound after the results:

Row | MDR1-MDCK efflux ratio | intrinsic clearance, human liver microsomes [mL/min/kg] | intrinsic clearance, rat liver microsomes [mL/min/kg] | aqueous solubility [µg/mL] | fraction unbound, human plasma | fraction unbound, rat plasma | SMILES
18 | 0.723 | – | – | 0.31 (≈ 0.79 µM) | – | – | Cc1cc(F)ccc1S(=O)(=O)N1CCCc2cnc(N3CCOCC3)nc21
19 | – | 7.42 | 724 | – | – | – | Cc1nc(Cn2nnnc2C(C)(C)C)nc2ccccc12
20 | 1.45 | 12.1 | 28.3 | 1.35 (≈ 3.72 µM) | – | – | Cc1nnc(NC(=O)c2ccccc2-c2ccc(C(F)(F)F)cc2)s1
21 | 0.511 | 22 | 140 | – | – | – | Cc1ccc(C(=O)NCCc2ccc(F)cc2)o1
22 | – | – | – | 0.5 (≈ 1.6 µM) | – | – | O=C(Nc1nc2ccccc2[nH]1)c1ccc(-c2ccccc2)cc1
23 | – | 12.2 | 53.6 | 9.14 (≈ 28.2 µM) | – | – | CCOc1cccc(C(=O)Nc2ccc3c(c2)CCC(=O)N3C)c1
24 | 117 | 44.7 | 840 | – | – | – | CNCc1cc(N(C)C)nc(C2CCCN2C(=O)c2oc3ccc(Cl)cc3c2C)n1 (stereo not drawn)
25 | 4.21 | 582 | 3140 | 39.8 (≈ 99.8 µM) | – | – | COc1ccc(OC)c(S(=O)(=O)Nc2cccc(CCc3ccccn3)c2)c1
26 | 0.636 | 124 | 4310 | 74.7 (≈ 254 µM) | – | – | Cc1cccnc1NC(=O)Cc1coc2c(C)c(C)ccc12
27 | 4.84 | 296 | 2500 | 18 (≈ 46.6 µM) | – | – | COc1ccc(-c2nc3cc(C)ccc3cc2CN(C)Cc2nccn2C)cc1
28 | – | 7.6 | 17 | – | – | – | CC(C)Cc1ccc(-c2nc(-c3ccc(CN4CC(C(=O)O)C4)cc3)no2)cc1
29 | 1.52 | – | – | 0.38 (≈ 1.06 µM) | – | – | Cc1ccc(CC(=O)NCc2cccc(C(=O)Nc3ccccc3)c2)cc1
30 | 21.8 | 7.73 | 20.9 | 48.3 (≈ 140 µM) | – | – | CC(=O)NC1(C(=O)N2CCCN(c3cccnn3)CC2)CCCCC1
